What was measured:
Experiment in all cases: Cell growth inhibitory effect, cell counting kit 8, 6 days
Assay type in all cases: cell-based
[1] = system: NCI-H322 cells, a human lung cancer cell line; conditions: 144 h, 6 days incubation
Outline: (§1)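 Cells grown in RPMI1640 with 10% FBS, plated at 500 cells/well (NCI-H226, NCI-H322) and incubated one day before serially diluted compound was added (0.1% DMSO final). After 6 days at 37 °C, 5% CO2, CCK-8 colour developed 2–3 h and A450 read; GI50 derived from growth inhibition rate.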

[2] = system: HuH28, a human liver cancer cell line; conditions: 144 h, HuH28 cells, 6 days incubation
Outline: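 HuH28 human liver cancer cells (JCRB0426) were maintained below 80% density in RPMI1640 with 10% FBS and grown in 96-well flat-bottom plates. Test compound was serially diluted to 5 times final concentration and added with DMSO at 0.1%, then incubated for 6 days at 37° C in 5% CO2. Viable cells were counted with cell counting kit 8 at dosing and on day 6, using a 2 or 3 hour color reaction and absorbance at 450 nm. GI50 was derived from growth inhibition rates.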

[3] = system: NCI-H226 cells, a human mesothelioma cell line; conditions: 144 h, 6 days incubation
Outline: as §1

[4] = group 100 nmol/L to 1 μmol/L (upper bound given in μmol/L)

Compound | GI50 [1] [nM] | GI50 [2] [nM] | GI50 ([3]; group less than 100 nmol/L) [nM] | GI50 [3, 4] [nM]
C=CC(=O)NCc1ccc(Oc2ccc(C(F)(F)F)nc2)c2ncccc12 [Compound 143, N-{(8-[{6-(Trifluoromethyl)pyridin-3-yl}oxy]quinolin-5-yl)methyl}acrylamide] | < 1000 | < 3000 | < 100 | 
C=CC(=O)NCc1cc(Oc2ccc(C(F)(F)F)nc2)nc2ccccc12 [Compound 149, N-{(2-[{6-(Trifluoromethyl)pyridin-3-yl}oxy]quinolin-4-yl)methyl}acrylamide] | < 1000 | < 3000 | < 100 | 
C=CC(=O)NCc1cc(Oc2ccnc(Cl)c2)nc2ccccc12 [Compound 150, N-([2-{(2-Chloropyridin-4-yl)oxy}quinolin-4-yl]methyl)acrylamide] | < 1000 | < 3000 | < 100 | 
C=CC(=O)NCc1cc(Oc2ccnc(C(F)(F)F)c2)nc2ccccc12 [Compound 151, N-{(2-[{2-(Trifluoromethyl)pyridin-4-yl}oxy]quinolin-4-yl)methyl}acrylamide] | < 1000 | < 3000 | < 100 | 
C=CC(=O)NC1COc2c(cccc2Oc2cnc(C(F)(F)F)nc2)C1 (stereo not drawn) [Compound 155, N-(8-[{2-(Trifluoromethyl)pyrimidin-5-yl}oxy]chroman-3-yl)acrylamide] | < 1000 | < 3000 | < 100 | 
C=CC(=O)NC1CCOc2c1ccc(Oc1ccc(F)c(F)c1)c2OC (stereo not drawn) [Compound 164, N-{7-(3,4-Difluorophenoxy)-8-methoxychroman-4-yl}acrylamide] | < 1000 | < 3000 |  | 100 to 1000
C=CC(=O)NC1CCOc2c1ccc(Oc1ccc(C(F)(F)F)nc1)c2Cl (stereo not drawn) [Compound 168, N-(8-Chloro-7-[{6-(trifluoromethyl)pyridin-3-yl}oxy]chroman-4-yl)acrylamide] | < 1000 | < 3000 | < 100 | 
C=CC(=O)NC1CCOc2c1ccc(Oc1ccc(C(F)(F)F)nc1)c2Br (stereo not drawn) [Compound 169, N-(8-Bromo-7-[{6-(trifluoromethyl)pyridin-3-yl}oxy]chroman-4-yl)acrylamide] | < 1000 | < 3000 | < 100 | 
C=CC(=O)NCc1ccc(Oc2ccc(Cl)cc2)c2c1CCCO2 [Compound 176, N-[{8-(4-Chlorophenoxy)chroman-5-yl}methyl]acrylamide] | < 1000 | < 3000 | < 100 | 
Nc1cncc(OCC2CCC(F)(F)CC2)c1 [Compound 192, 5-[(4,4-Difluorocyclohexyl)methoxy]pyridin-3-amine] | < 1000 | < 3000 |  | 100 to 1000
C=CC(=O)NCc1ccc(Oc2ccc(C(F)(F)F)cc2)c2ncc(C)cc12 [Compound 199, N-([3-Methyl-8-{4-(trifluoromethyl)phenoxy}quinolin-5-yl]methyl)acrylamide] | < 1000 | < 3000 | < 100 | 
C=CC(=O)NCc1ccc(Oc2ccc(C(F)(F)F)nc2)c2ncc(C)cc12 [Compound 200, N-{(3-Methyl-8-[{6-(trifluoromethyl)pyridin-3-yl}oxy]quinolin-5-yl)methyl}acrylamide] | < 1000 | < 3000 | < 100 | 
C=CC(=O)NCc1ccc(Oc2ccc(C(F)(F)F)cc2)c2nccc(C)c12 [Compound 201, N-([4-Methyl-8-{4-(trifluoromethyl)phenoxy}quinolin-5-yl]methyl)acrylamide] | < 1000 | < 3000 | < 100 | 
C=CC(=O)NCc1ccc(Sc2ccc(C(F)(F)F)cc2)c2ncccc12 [Compound 202, N-{(8-[{4-(Trifluoromethyl)phenyl}thio]quinolin-5-yl)methyl}acrylamide] | < 1000 | < 3000 | < 100 | 
C=CC(=O)NCc1ccc(Nc2ccc(C(F)(F)F)cc2)c2ncccc12 [Compound 203, N-{(8-[{4-(Trifluoromethyl)phenyl}amino]quinolin-5-yl)methyl}acrylamide] | < 1000 | < 3000 | < 100 | 
C=CC(=O)NCc1ccc(C(O)c2ccc(C(F)(F)F)cc2)c2ncccc12 (stereo not drawn) [Compound 206, N-{(8-[Hydroxy{4-(trifluoromethyl)phenyl}methyl]quinolin-5-yl)methyl}acrylamide] | < 1000 | < 3000 |  | 100 to 1000
C=CC(=O)NCc1ccc(C(=O)c2ccc(C(F)(F)F)cc2)c2ncccc12 [Compound 208, N-([8-{4-(Trifluoromethyl)benzoyl}quinolin-5-yl]methyl)acrylamide] | < 1000 | < 3000 |  | 100 to 1000
C=CC(=O)NCc1ccc(Cc2ccc(C(F)(F)F)cc2)c2ncccc12 [Compound 211, N-([8-{4-(Trifluoromethyl)benzyl}quinolin-5-yl]methyl)acrylamide] | < 1000 | < 3000 | < 100 | 
C=CC(=O)NCc1ccc(Oc2ccc(C(F)(F)F)cc2)c2nc(C)ccc12 [Compound 212, N-([2-Methyl-8-{4-(trifluoromethyl)phenoxy}quinolin-5-yl]methyl)acrylamide] | < 1000 | < 3000 | < 100 | 
C=CC(=O)NCc1cnc(Oc2ccc(C(F)(F)F)cc2)c2ccccc12 [Compound 222, N-([1-{4-(Trifluoromethyl)phenoxy}isoquinolin-4-yl]methyl)acrylamide] | < 1000 | < 3000 | < 100 | 
C=CC(=O)NCc1ccc(Oc2ccc(C(F)(F)F)cc2)c2cnccc12 [Compound 223, N-([8-{4-(Trifluoromethyl)phenoxy}isoquinolin-5-yl]methyl)acrylamide] | < 1000 | < 3000 | < 100 | 
C=CC(=O)NCc1ncc(Oc2ccc(C(F)(F)F)cc2)c2ccccc12 [Compound 224, N-([4-{4-(Trifluorophenyl)phenoxy}isoquinolin-1-yl]methyl)acrylamide] | < 1000 | < 3000 | < 100 | 
C=CC(=O)NCc1ccc(Oc2ccc(C(F)(F)F)cc2)c2ccncc12 [Compound 225, N-([5-{4-(Trifluoromethyl)phenoxy}isoquinolin-8-yl]methyl)acrylamide] | < 1000 | < 3000 | < 100 | 
C=CC(=O)Nc1cnc(Oc2ccc(Cl)cc2)c2ncccc12 [Compound 226, N-{8-(4-chlorophenoxy)-1,7-naphthyridin-5-yl}acrylamide] | < 1000 | < 3000 | < 100 | 
C=CC(=O)NCc1cnc(Oc2ccc(Cl)cc2)c2ncccc12 [Compound 227, N-[{8-(4-Chlorophenoxy)-1,7-naphthyridin-5-yl}methyl]acrylamide] | < 1000 | < 3000 | < 100 | 

Source: patent publication US11332455B2, “α,β-unsaturated amide compound” (KYOWA KIRIN CO., LTD., priority 2015, dated 2022)
